1 substance from patent US9987299B2, “Methods of improving RNAi in well-differentiated airway epithelia” (University of Iowa Research Foundation, priority 2014, dated 2018) can be followed below.

One test relates to Human CFTR mRNA. Put plainly: CFTR mRNA silencing by CFTR DsiRNA-Transductin in well-differentiated HAE (RT-qPCR). The class given is cell-based. The settings on record: CFTR DsiRNA with simultaneous PAF treatment or spiperone pre-treatment. As to the method: (§1) FIG. 4. […] Alternatively, spiperone was applied apically and basolaterally to well-differentiated HAE for 6 hours, and then removed by rinsing before incubation for 4 hours with CFTR-targeting or NC1 DsiRNAs complexed with Transductin. In both cases, 24 hours after transfection, and RNA levels quantified by RT-qPCR. (b) A representative immunoblot from similarly treated wells, but cells were lysed and proteins visualized after immunoprecipitation with anti-CFTR antibody. Alpha-tubulin was used as a loading control. (c) Densitometry readings of immunoblots with results normalized to NC1 treated samples. In all cases, data are from 3 biological replicates and are mean±SD. ***p<0.001, **p<0.01 (Student's t-test).
For well-differentiated airway epithelia, transfection was performed mostly according to the manufacturer's protocol. […]
Total RNA was isolated using SV96 RNA isolation kit (Promega, Madison, Wis.), according to manufacturer's protocol. […] One-fifteenth of the cDNA was then amplified and analyzed by using the 5′-nuclease assay in a 7900 Real Time PCR System (Applied Biosystems, Foster city, CA) using primer-probe pairs reaction buffer and Immolase DNA polymerase (Bioline, Taunton, Mass.). […] Absolute quantification of an mRNA target sequence within an unknown sample was determined by reference to a standard curve. […]
For orientation: In qPCR the cycle at which signal appears reflects the starting amount.

A further test deals with CFTR protein. Nature of the test: CFTR protein levels, immunoprecipitation and immunoblot with densitometry in HAE. The class given is cell-based, human. The method, then:
as §1
HAE were rinsed with PBS and lysed in RIPA buffer (1% NP-40, 0.5% sodium deoxycholate, 0.1% SDS, 50 mM Tris, protease inhibitors [complete; mini, EDTA-free; Roche Biochemicals, Indianapolis, Ind.]) for 30 minutes at 4° C. The lysate were centrifuged in a table top centrifuge at 14,000 rpm for 20 minutes at 4° C. The supernatant was quantified by BCA protein assay kit (Pierce, Rockford, Ill.). Thirty micrograms of protein per lane was separated on a 10% Tris-HCL Criterion precast gel (Bio-Rad, Hercules, Calif.) for western blot analysis. The protein was transferred to Polyvinylidene difluoride membrane and then was probed with goat anti-RSV antibody purchased from Meridian Life Sciences (Memphis, Tenn.). The membrane was imaged, and then stripped with Restore Western Blot Stripping Buffer (Thermo Scientific, Lafayette, Colo.) for 15 minutes. The membrane was rinsed with Tris-buffered saline-Tween (TBS-T) and blocked in 5% bovine serum albumin (Research Products International Corp, Mt. Prospect, Ill.). The membrane was then reprobed with α-tubulin (Sigma-Aldrich).
On the technique in general: In western blotting, separated proteins are transferred to a membrane and probed.

Another test concerns RSV N and P protein. Nature of the test: RSV protein immunoblot in infected HAE. The class given is cell-based, Respiratory Syncytial Virus. The note with it: PAF with RSV N DsiRNA; immunoblot 48 hours after infection. The source says: FIG. 6. […] HAE was either treated or untreated with PAF in concurrence with RSV N DsiRNA. Six hours later the cells were infected with RSV at an MOI of 1. Forty eight hours later, the cell washings from the apical surface was collected and assayed for viral titer (a). The cells were lysed and the proteins visualized after immunoprecipitation with anti-RSV antibodies (b) and the bands quantified by densitometry (c). Data are mean±SD from the results three different experiments, each using a different donor. ***p<0.001 (Student's t-test).
RSV infection of HAE for both for immunoblot and viral titer was done at an MOI of 1. The virus was thawed at 37° C. and diluted in MEM (0% FCS) to a volume of 70 μl (1MOI)/well. The cells in Millicell filters were rinsed with the same media once and the virus applied to the apical surface. The plate was incubated at 37° C. for a period of 2 hours. After the incubation period, the virus inoculum was rinsed with MEM three times to remove any traces of the virus. The plates were then incubated at 37° C. until used for the assay.
HAE were rinsed with PBS and lysed in RIPA buffer (1% NP-40, 0.5% sodium deoxycholate, 0.1% SDS, 50 mM Tris, protease inhibitors [complete; mini, EDTA-free; Roche Biochemicals, Indianapolis, Ind.]) for 30 minutes at 4° C. […] The supernatant was quantified by BCA protein assay kit (Pierce, Rockford, Ill.). […]

Another test deals with HAE. Nature of the test: DIG-labeled DsiRNA entry and uptake into HAE (confocal imaging). The class given is cell-based, human. The settings on record: PAF-treated HAE, 1 hour after transduction with Transductin, compared with control HAE. As to the method:
FIG. 2. PAF treatment enhances DsiRNA entry and uptake into cells. […] Blue, nuclei; green, DIG-labeled oligo. The images on the right and the left are from different fields.
The primary human airway epithelia grown at the air-liquid interface were transfected with the DIG-labeled DsiRNA at a concentration of 250 nM after complexing with Transductin. The transfection mixture was left on the apical surface for 1 h. At the end of this period, the cells were fixed in 2% formaldehyde, permeabilized in 0.2% Triton-x-100 and blocked in 1% BSA for 1 h. The cells were then stained with mouse antibody to DIG (Roche Biochemicals, Indianapolis, Ind.) for 1 h, followed by Alexa 488 labeled goat anti-mouse secondary antibody for 1 h, and then Alexa 488 labeled rabbit anti-mouse tertiary antibody (Life Technologies, Carlsbad, Calif.). In some cases an Alexa 564 goat anti-mouse secondary antibody was used. The cells were finally stained with nuclear stain, ToPro 3 for 10 minutes. The filter, containing the cells, was removed from the culture insert by cutting the edges with razor blade, and mounted on a slide with Vectashield (Vector Laboratories Inc, Burlingame, Calif.). The cells were visualized by confocal microscopy (Bio-Rad Radience 2100MP Multiphoton/Confocal Microscope, Bio-Rad, Hercules, Calif.).

With platelet activating factor [PAF], the “silencing of CFTR mRNA levels” value in the test with Human CFTR mRNA is “approximately 30%”. For the same substance, the “CFTR protein levels compared to controls” value in the test on CFTR protein (PAF or spiperone and CFTR DsiRNA-Transductin, immunoprecipitation, western blot) is “reduced CFTR protein levels”. The “fully glycosylated CFTR band C” value in the test with CFTR protein (densitometry, normalized to NC1 treated samples) is listed as “significantly decreased”. Besides, the “RSV N and P protein abundance compared to untreated control cells” value with RSV N and P protein was “reduced”. Further, in the test on HAE, the “amount of internalized DIG-labeled DsiRNA” value was “substantial increase in the amount of internalized label”.
